Results reported in patent US12590953B2, “Methods for screening cereblon modifying compounds” (CELGENE CORPORATION, priority 2018, dated 2026).
“Also recorded” adds a separate entry of the source.

Tests used:
[1] = test system: ZFP91; experiment: ZFP91 immunohistochemistry in rabbit testis; format: in vivo; conditions: treated male rabbits (150 mg/kg)
Procedure: Male New Zealand white rabbits were treated with vehicle (1% Carboxymethylcellulose in deionized water), or Thalidomide at either 30 or 150 mg/kg/day for 56 days to investigate testicular degeneration. Testis were collected 24 hours after the last dose, fixed in 10% NBF, processed, embedded in paraffin and sectioned at 4 microns for immunohistochemistry.
(§1) Rabbit embryos were stained for SALL4, and mouse testis were stained for SALL4 and ZFP91. Immunohistochemistry (IHC) was performed on the Bond-III automated slide stainer (Leica Microsystems, Buffalo Grove, Ill.) using the Bond Polymer Refine Detection system (Leica Microsystems, DS9800). Formalin fixed paraffin embedded (FFPE) tissues were sectioned at four micron thick and deparaffinized on the Bond-Max instrument. Antigen retrieval was performed with Epitope Retrieval 2 (ER2, pH 9.0) for 20 min at 100° C. The slides were blocked for endogenous peroxidase activity with Peroxide Block for 5 minutes at room temperature. Sections were then incubated with the mouse monoclonal anti-SALL4 EE-30 antibody (Santa Cruz, sc-101147) at a 1:100 dilution for 60 min at room temperature, or with the rabbit monoclonal anti-ZFP91 antibody (Celgene custom clone 122-8-6) at 0.25 ug/ml. […]

[2] = test system: SALL4 mRNA; experiment: qRT-PCR of SALL4 mRNA in human iPS cells; format: cell-based; conditions: 20 μM thalidomide, 16 hours, normalized with GAPDH
Procedure: Quantitative RT-PCR analysis was performed to human iPS cells treated with DMSO or 20 μM thalidomide (THA) for 16 hours. The relative mRNA level of SALL4 and POU5F1(OCT4) was normalized with GAPDH (n=2, biological replicates).
Total RNA was extracted from human iPS cells using RNeasy Mini Kit (Qiagen) according to manufacturer's instruction, and reverse-transcribed into first-strand cDNA with random primer using SuperScript™ IV First-Strand Synthesis System (ThermoFisher). Real-time PCR was performed in triplicate using ViiA 7 Real-Time PCR System with TaqMan Gene Expression Assay probes (ThermoFisher) for SALL4 (#4351372), POU5F1(#4331182) and GAPDH (#4326317E).

[3] = test system: SALL4; experiment: SALL4 immunohistochemistry in rabbit embryos; format: in vivo; conditions: pregnant rabbits, 180 mg/kg per day from GD7, embryos GD8-12; 180 mg/kg/day
Procedure: All animals were housed and fed according to IACUC approved procedures. The rabbits either remained untreated (n=4 per time point) or received 180 mg/kg of Thalidomide per day (n=5 per time point) starting on GD7. Dose levels and sensitive gestation windows were selected based on previously reported finding in Thalidomide teratogenicity studies (Christian MS, birth defect research, 2007)
Cesarean sections were performed in each rabbit 3 hours after the last Thalidomide dose to ensure maximum plasma concentration of Thalidomide (CMax=3 hours) (Hui et al, Reproductive Toxicology, 2014). The uteri were removed, the implantation sites were counted and mortality and resorptions noted during embryo dissection. GD8 embryos were not dissected and were fixed in situ attached to the placental site and uterine wall. The entire implantation site was processed, embedded in paraffin and sectioned at 4 microns for immunohistochemistry. GD 9-12 embryos were collected with fetal membranes, fixed in 10% Neutral Buffered Formalin for 24 hours and transferred to 70% Ethanol. After fixation fetal membranes were removed and embryos processed, embedded in paraffin and sectioned at 4 microns for immunohistochemistry and in situ hybridization procedures.
Rabbit embryos were stained for SALL4, and mouse testis were stained for SALL4 and ZFP91. […]

[4] = molecular target: ZFP91 (Mus musculus, UniProt Q62511); experiment: ZFP91 immunohistochemistry in huCRBN mouse testis; format: in vivo; design: from tissue; host or cells: testis of homozygous huCRBN knock-in mice; conditions: huCRBN mice, 1000 mg/kg for 7 days
Sequence of ZFP91 (Mus musculus, UniProt Q62511) (Q62511 whole entry): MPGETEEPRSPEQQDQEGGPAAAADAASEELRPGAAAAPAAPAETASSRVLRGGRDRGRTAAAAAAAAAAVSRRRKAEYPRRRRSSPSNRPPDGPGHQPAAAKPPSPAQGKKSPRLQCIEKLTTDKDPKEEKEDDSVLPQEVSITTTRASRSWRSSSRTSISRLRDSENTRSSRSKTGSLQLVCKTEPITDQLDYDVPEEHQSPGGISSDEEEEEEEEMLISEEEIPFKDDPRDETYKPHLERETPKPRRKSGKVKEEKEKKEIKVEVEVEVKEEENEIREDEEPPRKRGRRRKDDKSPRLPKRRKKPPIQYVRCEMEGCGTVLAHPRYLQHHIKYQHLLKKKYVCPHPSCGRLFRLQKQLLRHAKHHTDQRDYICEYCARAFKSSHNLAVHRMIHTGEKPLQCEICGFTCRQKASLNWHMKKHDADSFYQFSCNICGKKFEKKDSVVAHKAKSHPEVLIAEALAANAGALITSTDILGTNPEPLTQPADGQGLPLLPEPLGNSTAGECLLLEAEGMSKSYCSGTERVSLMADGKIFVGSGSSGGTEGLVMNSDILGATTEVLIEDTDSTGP
Sequence of ZFP91 (Mus musculus, UniProt Q62511) (Q96SW2 whole entry, further chain): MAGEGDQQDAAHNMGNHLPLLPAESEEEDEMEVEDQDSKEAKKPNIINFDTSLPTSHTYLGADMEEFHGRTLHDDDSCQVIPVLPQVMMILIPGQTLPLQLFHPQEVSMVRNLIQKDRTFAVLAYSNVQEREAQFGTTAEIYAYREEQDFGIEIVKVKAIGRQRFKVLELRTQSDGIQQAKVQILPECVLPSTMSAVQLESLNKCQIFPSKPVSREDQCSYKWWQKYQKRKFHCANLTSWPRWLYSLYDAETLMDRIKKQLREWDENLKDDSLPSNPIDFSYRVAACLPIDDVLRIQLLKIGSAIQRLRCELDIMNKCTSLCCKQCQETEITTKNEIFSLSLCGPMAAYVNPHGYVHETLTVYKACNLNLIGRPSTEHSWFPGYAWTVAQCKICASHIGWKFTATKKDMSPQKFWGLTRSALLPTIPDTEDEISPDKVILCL
Sequence of ZFP91 (Mus musculus, UniProt Q62511) (Q3U1J4 whole entry partner): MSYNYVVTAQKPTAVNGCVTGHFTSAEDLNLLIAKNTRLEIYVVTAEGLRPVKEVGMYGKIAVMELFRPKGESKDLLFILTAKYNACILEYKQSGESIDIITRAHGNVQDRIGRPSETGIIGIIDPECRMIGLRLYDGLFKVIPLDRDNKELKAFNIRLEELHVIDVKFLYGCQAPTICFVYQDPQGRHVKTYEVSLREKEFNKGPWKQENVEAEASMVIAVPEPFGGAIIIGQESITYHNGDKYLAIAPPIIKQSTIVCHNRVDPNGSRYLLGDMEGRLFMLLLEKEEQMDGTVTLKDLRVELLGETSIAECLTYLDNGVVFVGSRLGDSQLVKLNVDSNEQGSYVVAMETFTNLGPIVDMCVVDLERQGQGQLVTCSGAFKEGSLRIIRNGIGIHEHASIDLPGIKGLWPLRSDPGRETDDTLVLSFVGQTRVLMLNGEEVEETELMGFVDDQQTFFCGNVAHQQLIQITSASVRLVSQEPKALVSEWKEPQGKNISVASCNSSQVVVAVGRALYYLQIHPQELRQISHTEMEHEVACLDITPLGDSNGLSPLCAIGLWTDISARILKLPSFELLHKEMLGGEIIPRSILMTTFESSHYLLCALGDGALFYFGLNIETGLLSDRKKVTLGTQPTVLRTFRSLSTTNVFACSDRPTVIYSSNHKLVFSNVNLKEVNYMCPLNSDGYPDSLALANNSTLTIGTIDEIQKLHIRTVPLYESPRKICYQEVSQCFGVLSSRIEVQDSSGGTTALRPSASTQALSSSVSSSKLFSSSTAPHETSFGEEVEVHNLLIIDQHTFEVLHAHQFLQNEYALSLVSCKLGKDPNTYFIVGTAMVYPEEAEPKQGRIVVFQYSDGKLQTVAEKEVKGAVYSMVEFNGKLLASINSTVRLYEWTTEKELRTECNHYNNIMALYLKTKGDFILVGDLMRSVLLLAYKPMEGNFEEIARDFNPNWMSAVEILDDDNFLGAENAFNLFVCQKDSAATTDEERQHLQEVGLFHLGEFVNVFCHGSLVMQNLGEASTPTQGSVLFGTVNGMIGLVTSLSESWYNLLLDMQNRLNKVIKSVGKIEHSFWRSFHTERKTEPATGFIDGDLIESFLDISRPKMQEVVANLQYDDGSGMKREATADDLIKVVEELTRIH
Procedure: The SALL4 and ZFP91 protein levels were examined by immunohistochemistry in rabbit, wild-type mouse, and humanized cereblon mouse testes. […] HuCRBN Mice were treated for 7 days and testis were collected and examined by immunohistochemistry (n=3 animals per treatment group per species).
as §1, with “ug/ml. For mouse testis, primary antibodies were incubated for 15 min at room temperature, and Post-Primary and horseradish peroxidase (HRP) labeled Polymer were incubated at the instrument's default conditions.” for “ug/ml.”

## O=C1CCC(N2C(=O)c3ccccc3C2=O)C(=O)N1 (stereo not shown) [thalidomide]
[1]
  ZFP91 protein levels in testis: correspondingly depleted; also recorded: caused degradation of both ZFP91 and SALL4
[2]
  SALL4 mRNA levels: not reduced by thalidomide treatment (FIG. 7E), and are instead increased; also recorded: decrease in SALL4 protein levels is not due to transcriptional downregulation
[3]
  SALL4 levels in embryos: significant decrease in SALL4 levels which was most pronounced on GD12; also recorded: downregulation of SALL4 levels in rabbit embryos
[4]
  ZFP91 protein levels in testis: robustly downregulated; also recorded: caused degradation of ZFP91 but not SALL4
